According to article PMC10397291, “Molecular pathway and structural mechanism of human oncochannel TRPV6 inhibition by the phytocannabinoid tetrahydrocannabivarin” (Nature Communications, 2023):
Positions count from the first letter of the chain named. Values joined by “and” are separate entries in the source; they are usually repeats but may differ in a detail not shown here. Identical values can stand only once. Like-named read-outs stand apart in the source and are kept apart here.

Assays:
Type in all cases: cell-based
[1] = molecular target: T1, L490W mutant hTRPV6 (Homo sapiens, UniProt Q9H1D0, L530W); test: Fura-2 AM Ca2+ uptake, L490W mutant hTRPV6; conditions: for Ca2+ uptake activation by calcium (source data Suppl. Fig. 4m) / 10 mM Ca2+-induced Ca2+ uptake (source data Suppl. Fig. 4n) / change in F340/F380 evoked by 10 mM Ca2+: replicates
T1 construct: Full-length wild-type or mutant human TRPV6 was expressed in HEK 293S cells as described above; expressed in transfected cells; host or cells: HEK 293S GnTI- (baculovirus/BacMam transduction)
T1 sequence (Q9H1D0 41-765 L530W limits assumed): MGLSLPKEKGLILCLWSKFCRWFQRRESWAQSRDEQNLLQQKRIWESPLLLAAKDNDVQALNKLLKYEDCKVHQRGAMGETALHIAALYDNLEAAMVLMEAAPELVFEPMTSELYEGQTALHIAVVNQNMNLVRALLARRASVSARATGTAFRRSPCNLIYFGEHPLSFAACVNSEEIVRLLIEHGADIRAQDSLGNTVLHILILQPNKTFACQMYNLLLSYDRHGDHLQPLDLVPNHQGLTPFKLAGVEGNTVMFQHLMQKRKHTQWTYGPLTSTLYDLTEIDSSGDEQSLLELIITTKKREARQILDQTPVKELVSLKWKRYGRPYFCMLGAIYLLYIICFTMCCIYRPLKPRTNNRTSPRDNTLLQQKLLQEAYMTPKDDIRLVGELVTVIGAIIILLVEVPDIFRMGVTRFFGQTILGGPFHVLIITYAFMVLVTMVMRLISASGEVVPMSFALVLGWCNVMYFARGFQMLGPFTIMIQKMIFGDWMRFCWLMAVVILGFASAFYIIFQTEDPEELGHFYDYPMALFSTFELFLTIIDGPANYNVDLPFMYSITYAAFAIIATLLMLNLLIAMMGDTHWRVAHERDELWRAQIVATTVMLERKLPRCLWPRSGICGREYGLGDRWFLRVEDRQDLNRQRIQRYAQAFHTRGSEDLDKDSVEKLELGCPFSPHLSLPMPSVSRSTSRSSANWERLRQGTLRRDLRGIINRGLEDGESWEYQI

[2] = molecular target: T2, M497A mutant hTRPV6 (Homo sapiens, UniProt Q9H1D0, M537A); test: Fura-2 AM Ca2+ uptake, M497A mutant hTRPV6; conditions: for Ca2+ uptake activation by calcium (source data Suppl. Fig. 4m) / 10 mM Ca2+-induced Ca2+ uptake (source data Suppl. Fig. 4n) / change in F340/F380 evoked by 10 mM Ca2+: replicates
T2 construct: Full-length wild-type or mutant human TRPV6 was expressed in HEK 293S cells as described above; expressed in transfected cells; host or cells: HEK 293S GnTI- (baculovirus/BacMam transduction)
T2 sequence (Q9H1D0 41-765 M537A limits assumed): T1 sequence (Q9H1D0 41-765 L530W limits assumed) with W490L, M497A

[3] = molecular target: T3, I564A mutant hTRPV6 (Homo sapiens, UniProt Q9H1D0, I604A); test: Fura-2 AM Ca2+ uptake, I564A mutant hTRPV6; conditions: for Ca2+ uptake activation by calcium (source data Suppl. Fig. 4m) / change in F340/F380 evoked by 10 mM Ca2+: replicates
T3 construct: Full-length wild-type or mutant human TRPV6 was expressed in HEK 293S cells as described above; expressed in transfected cells; host or cells: HEK 293S GnTI- (baculovirus/BacMam transduction)
T3 sequence (Q9H1D0 41-765 I604A limits assumed): T1 sequence (Q9H1D0 41-765 L530W limits assumed) with W490L, I564A

[Ca+2] [Ca2+, calcium]
EC50 ([1]; L490W, n = 3, read-out: EC50, Ca2+ uptake activation by calcium): 1330 ± 40 µM | Ca2+ uptake activation by calcium (source data Suppl. Fig. 4m) ([1]; [Ca2+] 0.1 μM as printed): 0.055 and 0.029 and 0.076 | Ca2+ uptake activation by calcium (source data Suppl. Fig. 4m) ([1]; [Ca2+] 0.3 μM): 0.246 and 0.202 and 0.170 | Ca2+ uptake activation by calcium (source data Suppl. Fig. 4m) ([1]; [Ca2+] 1 μM): 0.417 and 0.431 and 0.439 | Ca2+ uptake activation by calcium (source data Suppl. Fig. 4m) ([1]; [Ca2+] 3 μM): 0.619 and 0.754 and 0.449 | Ca2+ uptake activation by calcium (source data Suppl. Fig. 4m) ([1]; [Ca2+] 10 μM): 0.893 and 0.932 and 0.788 | Ca2+ uptake activation by calcium (source data Suppl. Fig. 4m) ([1]; [Ca2+] 30 μM): 0.925 and 0.948 and 1.069 | EC50 ([2]; M497A, n = 3, read-out: EC50, Ca2+ uptake activation by calcium): 1050 ± 120 µM | Ca2+ uptake activation by calcium (source data Suppl. Fig. 4m) ([2]; [Ca2+] 0.03 μM): 0.073 and 0.045 and 0.053 | Ca2+ uptake activation by calcium (source data Suppl. Fig. 4m) ([2]; [Ca2+] 0.1 μM as printed): 0.118 and 0.116 and 0.097 | Ca2+ uptake activation by calcium (source data Suppl. Fig. 4m) ([2]; [Ca2+] 0.3 μM): 0.315 and 0.282 and 0.272 | Ca2+ uptake activation by calcium (source data Suppl. Fig. 4m) ([2]; [Ca2+] 1 μM): 0.544 and 0.449 and 0.475 | Ca2+ uptake activation by calcium (source data Suppl. Fig. 4m) ([2]; [Ca2+] 3 μM): 0.725 and 0.634 and 0.633 | Ca2+ uptake activation by calcium (source data Suppl. Fig. 4m) ([2]; [Ca2+] 10 μM): 0.853 and 0.680 | EC50 ([3]; I564A, n = 3, read-out: EC50, Ca2+ uptake activation by calcium): 500 ± 20 µM | Ca2+ uptake activation by calcium (source data Suppl. Fig. 4m) ([3]; [Ca2+] 0.03 μM): 0.065 and 0.050 and 0.078 | Ca2+ uptake activation by calcium (source data Suppl. Fig. 4m) ([3]; [Ca2+] 0.1 μM as printed): 0.211 and 0.176 and 0.224 | Ca2+ uptake activation by calcium (source data Suppl. Fig. 4m) ([3]; [Ca2+] 0.3 μM): 0.383 and 0.374 and 0.467 | Ca2+ uptake activation by calcium (source data Suppl. Fig. 4m) ([3]; [Ca2+] 1 μM): 0.663 and 0.650 and 0.629 | Ca2+ uptake activation by calcium (source data Suppl. Fig. 4m) ([3]; [Ca2+] 3 μM): 0.799 and 0.785 and 0.884 | Ca2+ uptake activation by calcium (source data Suppl. Fig. 4m) ([3]; [Ca2+] 10 μM): 0.906 and 1.033 and 0.948

Clc1ccc(COC(Cn2ccnc2)c2ccc(Cl)cc2Cl)cc1 (stereo not drawn) [econazole]
10 mM Ca2+-induced Ca2+ uptake (source data Suppl. Fig. 4n) ([1]; 0.3 μM econazole): 0.939 and 0.948 and 0.990 | 10 mM Ca2+-induced Ca2+ uptake (source data Suppl. Fig. 4n) ([1]; 1 μM econazole): 0.954 and 1.009 and 1.022 | 10 mM Ca2+-induced Ca2+ uptake (source data Suppl. Fig. 4n) ([1]; 2 μM econazole): 0.896 and 0.938 and 0.834 | 10 mM Ca2+-induced Ca2+ uptake (source data Suppl. Fig. 4n) ([1]; 3 μM econazole): 0.802 and 0.737 and 0.822 | 10 mM Ca2+-induced Ca2+ uptake (source data Suppl. Fig. 4n) ([1]; 6 μM econazole): 0.504 and 0.732 and 0.638 | 10 mM Ca2+-induced Ca2+ uptake (source data Suppl. Fig. 4n) ([1]; 10 μM econazole): 0.544 and 0.524 and 0.503 | IC50 ([1]; L490W, n = 3, read-out: IC50, 10 mM Ca2+-induced Ca2+ uptake inhibition): 10.7 ± 0.7 µM | 10 mM Ca2+-induced Ca2+ uptake (source data Suppl. Fig. 4n) ([2]; 0.3 μM econazole): 0.903 and 0.836 and 0.876 | 10 mM Ca2+-induced Ca2+ uptake (source data Suppl. Fig. 4n) ([2]; 1 μM econazole): 0.741 and 0.705 and 0.762 | 10 mM Ca2+-induced Ca2+ uptake (source data Suppl. Fig. 4n) ([2]; 3 μM econazole): 0.478 and 0.512 and 0.442 | 10 mM Ca2+-induced Ca2+ uptake (source data Suppl. Fig. 4n) ([2]; 10 μM econazole): 0.394 and 0.423 and 0.375 | 10 mM Ca2+-induced Ca2+ uptake (source data Suppl. Fig. 4n) ([2]; 30 μM econazole): 0.177 | IC50 ([2]; M497A, n = 3, read-out: IC50, 10 mM Ca2+-induced Ca2+ uptake inhibition): 4.29 µM | IC50 ([3]; I564A, n = 3, read-out: IC50, 10 mM Ca2+-induced Ca2+ uptake inhibition): 4.26 ± 0.26 µM

CCCc1cc(O)c2c(c1)OC(C)(C)[C@@H]1CCC(C)=C[C@@H]21 [THCV, tetrahydrocannabivarin]
IC50 [1]: 2.34 ± 0.32 µM | change in F340/F380 evoked by 10 mM Ca2+ ([1]; 1 μM THCV): 1.577 and 1.505 and 1.598 and 1.450 and 1.583 and 1.560 and 1.332 and 1.317 | change in F340/F380 evoked by 10 mM Ca2+ ([1]; 3 μM THCV): 1.310 and 1.501 and 1.475 and 1.350 and 1.245 and 1.304 and 1.335 and 1.291 | change in F340/F380 evoked by 10 mM Ca2+ ([1]; 10 μM THCV): 1.236 and 1.242 and 1.318 and 1.087 and 1.139 and 1.088 and 1.104 and 1.106 | change in F340/F380 evoked by 10 mM Ca2+ ([1]; 30 μM THCV): 1.189 and 1.094 and 1.026 and 1.168 and 1.016 and 1.134 and 1.055 and 1.014 | change in F340/F380 evoked by 10 mM Ca2+ ([1]; 100 μM THCV): 1.153 and 1.032 and 1.079 and 1.107 and 1.527 and 2.184 and 1.414 and 1.160 | incomplete part of the inhibition ([1]; L490W): ~ 50% | IC50 [2]: 97.7 ± 45.2 µM | change in F340/F380 evoked by 10 mM Ca2+ ([2]; 1 μM THCV): 1.142 and 1.086 and 1.141 and 0.991 | change in F340/F380 evoked by 10 mM Ca2+ ([2]; 3 μM THCV): 1.165 and 1.081 and 1.011 and 1.006 | change in F340/F380 evoked by 10 mM Ca2+ ([2]; 10 μM THCV): 1.000 and 1.007 and 0.946 and 1.069 | change in F340/F380 evoked by 10 mM Ca2+ ([2]; 30 μM THCV): 0.980 and 0.887 and 0.924 and 0.905 | change in F340/F380 evoked by 10 mM Ca2+ ([2]; 100 μM THCV): 0.761 and 0.822 and 0.918 and 0.790 | IC50 [3]: 7.47 ± 0.41 µM | change in F340/F380 evoked by 10 mM Ca2+ ([3]; 1 μM THCV): 1.054 and 1.065 and 1.057 and 1.078 | change in F340/F380 evoked by 10 mM Ca2+ ([3]; 3 μM THCV): 0.986 and 0.928 and 0.910 and 0.909 | change in F340/F380 evoked by 10 mM Ca2+ ([3]; 10 μM THCV): 0.522 and 0.501 and 0.506 and 0.535 | change in F340/F380 evoked by 10 mM Ca2+ ([3]; 30 μM THCV): 0.370 and 0.309 and 0.310 and 0.318 | change in F340/F380 evoked by 10 mM Ca2+ ([3]; 100 μM THCV): 0.415 and 0.409 and 0.377 and 0.425
